Our source for the EC50 values is US12521381B2, “Anticoccidial agent and method for using the same” (NIHON NOHYAKU CO., LTD., priority 2020, dated 2026).

As a reminder, the EC50 is the concentration that produces a half-maximal response.

The assay has as its system chicken coccidium (Eimeria tenella). The assay can be described thus: Evaluation test of growth inhibition on chicken coccidium (Eimeria tenella). The format is cell-based. As to conditions: 48 h, mammal cells infected with sporozoite of chicken coccidium, indirect immunofluorescence, read-out: EC50 (inhibition of growth of chicken coccidium to a mature schizont). How it is done: Test Example 1: Evaluation Test of Growth Inhibition on Chicken Coccidium (Eimeria tenella) Each of the benzimidazole compounds represented by General Formula (1) or salts of the compounds according to the present invention was diluted with a regulating liquid to a predetermined concentration and placed in a microtiter plate. To the dilution in the plate, mammal cells infected with a sporozoite of chicken coccidium were incubated. Forty-eight hours later, the degree of inhibition on growth of chicken coccidium to a mature schizont was examined by an indirect immunofluorescence technique, and EC50 was determined by calculation.

As to `FC(F)(F)C(F)(F)COc1ccc(-c2nc3cc(Br)c(Br)cc3[nH]2)cn1` [Compound 11-5, 5,6-dibromo-2-(6-(2,2,3,3,3-pentafluoropropoxy)pyrid-3-yl)benzimidazole], the EC50 was no more than 20 µM.
